How the values were obtained:
MCF7 cells [1] = test: Growth of MCF7 cells in estrogen-free, phenol red-free medium, crystal violet staining; format: cell-based, human; conditions: for proliferation with 4-hydroxytamoxifen: 10 nM E2 + 1 μM 4-hydroxytamoxifen; for sensitization to tamoxifen's antiproliferative effects: 1 μM 4-hydroxytamoxifen
Experimental: (A) Growth of control (shCtrl) vs NAMPT knockdown (shNAMPT) MCF7 cells cultured for 7 days in EMEM medium supplemented with 10% FBS, or in phenol red-free EMEM supplemented with 10% charcoal-stripped estrogen-free FBS. Growth was measured by crystal violet staining after 7 days in culture. Groups were compared by unpaired two-tailed Student's t-test in n=3 (***P<0.001). (B) Growth of control (shCtrl) vs NAMPT knockdown (shNAMPT) MCF7 cells cultured in estrogen-free, phenol red-freeEMEM medium supplemented with 10% charcoal-stripped FBS. […] Growth was measured by crystal violet staining after 7 days in culture. Groups were compared by unpaired two-tailed Student's t-test in n=3 (*P<0.05,[…],***P<0.001). (C) Changes in NAD^+ levels impact the subcellular localization of ERα. […] Estrogen starvation and treatment were performed in phenol red-free EMEM supplemented with 10% charcoal-stripped FBS. ERα was detected by immunofluorescence using Pierce anti-ERα antibody (MA1-39539). Representative images are shown for all conditions.
To further analyze the regulatory role of NAMPT and the NAD^+ salvage pathway in estrogen-dependent growth and tamoxifen treatment, we first analyzed the capacity of MCF7 variant cells to grow in estrogen-free media. […] Importantly, low NAMPT expressing MCF7 cells (shNAMPT) had the capacity to proliferate even in the absence of estrogens (FIG. 6A). […] Furthermore, NAM treatment sensitized shCT and re-sensitized shNAMPT cells to tamoxifen's antiproliferative effects (FIG. 6B). In FIG. 4C, we analyzed the ERα localization in MCF7 cells when the cells were cultured in EMEM medium supplemented with 10% FBS, serum that contain hormones and growth factors that modulate ERα localization independently of the presence of estrogens (Muriel Le Romancer et al., Endocrine Reviews, October 2011, 32(5):597-622). In order to deeply analyze the role of NAMPT and NAM treatment on modulating ligand-dependent ERα nuclear localization, we starved the cells from any growth factor and hormones including estrogens for 72 hours by growing them in phenol red-free EMEM/10% charcoal-stripped FBS. Then, breast cancer cells were cultured for 24 hours with or without 10 nM E2, or with 10 nM E2 plus 10 mM NAM. […] In the absence of estrogens, ERα was distributed in the cytoplasm of control cells while in shNAMPT expressing cells ERα was concentrated in the nuclei.

MCF7 cells [2] = test: Proliferation of MCF7 cells (shCtrl vs shNAMPT) by crystal violet staining; format: cell-based, human; conditions: for restoration of tamoxifen sensitivity: ER+/NAMPT-low MCF7 cells, 1, 5 or 10 mM NAM or 1 or 5 mM NR
Experimental: (§1) NAMPT knockdown (shNAMPT) reduced NAMPT (A) mRNA and (B) protein expression in MCF7 and T47D cells compared to controls transduced with scrambled shRNA (shCtrl). (A) NAMPT mRNA levels were analyzed by real time PCR and are expressed relative to beta-D-glucuronidase (GUSB) (***P<0.001) (n=3). (B) NAMPT protein expression was analyzed by Western blot analysis. Quantification of NAMPT protein was related to β-tubulin expression. […] Cellular NAD was analyzed in whole cell extracts of 1×10^6 cells. Metabolite concentrations were determined using a NAD+/NADH fluorescence detection kit (Cell Technology, Inc) and normalized to protein content. (D) Proliferation of control (shCtrl) vs NAMPT-knockdown (shNAMPT) MCF7 and T47D cells, untreated or treated with 0.001, 0.05, 0.1, 1, or 5 μM 4-hydroxytamoxifen (tamoxifen active metabolite) for 14 days. Proliferation was measured based on crystal violet staining and is expressed as % of proliferation of untreated cells. Groups were compared by unpaired two-tailed Student's t-test in n=4 (***P<0.001, **P<0.01 *P<0.05).
(A) Effect of nicotinamide treatment (10 mM NAM) on proliferation of control (shCtrl) vs NAMPT-knockdown (shNAMPT) MCF7 and T47D cells exposed to 1 μM or 0.1 μM 4-hydroxytamoxifen (tamoxifen active metabolite) respectively for 14 days. Proliferation was measured based on crystal violet staining and is expressed as % of proliferation of untreated cells (no 4-hydroxytamoxifen, no NAM). Groups were compared by unpaired two-tailed Student's t-test in n=4 (***P<0.001, **P<0.01 *P<0.05). (B) NAMPT KD cells present reduced absolute levels of NAD′ and nicotinamide treatment induces NAD^+ and NADH levels in both control (CT) or NAMPT KD (shNAMPT) breast cancer cells. NAD^+ and NADH were analyzed independently in whole cell extracts of 1×10^6 cells. Metabolite concentrations were determined using a NAD^+/NADH fluorescence detection kit (Cell Technology, Inc). (C) Distribution of ERα in MCF7 shCT or shNAMPT cells, measured after 7 days of cell treatment with 10 mM nicotinamide in EMEM medium, supplemented with 10% FBS. ERα localization was detected by immunofluorescence using anti-ERα clone SP1 (Thermo Fisher). Nuclei were detected by DAPI staining. Representative images are shown.
Nicotinamide riboside (NR) was more efficient than nicotinamide in blocking low-NAMPT-induced tamoxifen resistance. Proliferation of control (shCT) vs NAMPT-knockdown (shNAMPT) MCF7 cells treated with 1 or 5 μM 4-hydroxytamoxifen (tamoxifen active metabolite) for 7 days with or without (A) 1, 5 or 10 mM nicotinamide (NAM) or (B) 1 or 5 mM nicotinamide riboside (NR). Proliferation was measured based on crystal violet staining and is expressed as % of proliferation of untreated cells (no 4-hydroxytamoxifen). Groups were compared by unpaired two-tailed Student's t-test in n=4 (***P<0.001, **P<0.01 *P<0.05).

T47D cells = test: Proliferation of T47D cells (shCtrl vs shNAMPT) by crystal violet staining; format: cell-based, human; conditions: 14 days
Experimental: as §1, with “(D) Proliferation of control (shCtrl) vs NAMPT-knockdown (shNAMPT) MCF7 and T47D cells, untreated or treated with 0.001, 0.05, 0.1, 1, or 5 μM 4-hydroxytamoxifen (tamoxifen active metabolite) for 14 days.” left out, “Groups were compared by unpaired two-tailed Student's t-test in n=4 (***P<0.001, **P<0.01 *P<0.05).” left out
(§2) (A) Effect of nicotinamide treatment (10 mM NAM) on proliferation of control (shCtrl) vs NAMPT-knockdown (shNAMPT) MCF7 and T47D cells exposed to 1 μM or 0.1 μM 4-hydroxytamoxifen (tamoxifen active metabolite) respectively for 14 days. Proliferation was measured based on crystal violet staining and is expressed as % of proliferation of untreated cells (no 4-hydroxytamoxifen, no NAM). […] NAD^+ and NADH were analyzed independently in whole cell extracts of 1×10^6 cells. Metabolite concentrations were determined using a NAD^+/NADH fluorescence detection kit (Cell Technology, Inc). […] Nuclei were detected by DAPI staining. […]

cellular NAD^+ = test: Cellular NAD+ in whole cell extracts, NAD+/NADH fluorescence detection kit; format: cell-based, human; conditions: MCF7 cells expressing basal or low NAMPT levels
Experimental: as §1, with “(D) Proliferation of control (shCtrl) vs NAMPT-knockdown (shNAMPT) MCF7 and T47D cells, untreated or treated with 0.001, 0.05, 0.1, 1, or 5 μM 4-hydroxytamoxifen (tamoxifen active metabolite) for 14 days.” left out, “Groups were compared by unpaired two-tailed Student's t-test in n=4 (***P<0.001, **P<0.01 *P<0.05).” left out
as §2

MDA-MB-231 cells = test: Proliferation of triple negative MDA-MB-231 cells by crystal violet staining; format: cell-based, human; conditions: 10 mM NAM, 0.5, 1 or 5 μM 4-hydroxytamoxifen, 14 days
Experimental: Proliferation of triple negative breast MDA-MB-231 cells, untreated or treated with 0.5, 1 or 5 μM 4-hydroxytamoxifen (tamoxifen active metabolite) for 14 days, with or without treatment with 10 mM nicotinamide (NAM). Proliferation was measured based on crystal violet staining and is expressed as % of proliferation of untreated cells (no 4-hydroxytamoxifen, no NAM). Groups were compared by unpaired two-tailed Student's t-test in n=3 (**P<0.01).

[3] = MCF7 shNAMPT, 10 mM NAM, 7 days
[4] = 1 or 5 μM 4-hydroxytamoxifen, 7 days

C[C@]12CC[C@@H]3c4ccc(O)cc4CC[C@H]3[C@@H]1CC[C@@H]2O [17-β-estradiol]
proliferation with 17-β-estradiol (MCF7 cells [1]; MCF7 shCT, 10 nM E2, 7 days, estrogen-free medium): induced proliferation

4-hydroxytamoxifen
proliferation with 4-hydroxytamoxifen (MCF7 cells [1]; MCF7 shCT, 7 days): able to reduce proliferation
proliferation with 4-hydroxytamoxifen (MCF7 cells [1]; MCF7 shNAMPT, 7 days): not in shNAMPT
anti-proliferative efficacy of 4-hydroxytamoxifen on reduction of NAMPT expression (MCF7 cells [2]; MCF7 shNAMPT vs shCtrl, 0.001-5 μM, 14 days): dramatically reduced the anti-proliferative efficacy
anti-proliferative efficacy of 4-hydroxytamoxifen on reduction of NAMPT expression (T47D cells; T47D shNAMPT vs shCtrl, 0.001-5 μM): dramatically reduced the anti-proliferative efficacy

NC(=O)c1cccnc1 [NAM, nicotinamide]
sensitization to tamoxifen's antiproliferative effects (MCF7 cells [1]; MCF7 shCT, 10 mM NAM, 7 days): sensitized
estrogen-induced proliferation (MCF7 cells [1]; MCF7 shCT, 10 mM NAM, 7 days): dramatically inhibited
sensitization to tamoxifen's antiproliferative effects (MCF7 cells [1]; [3]): re-sensitized
estrogen-independent growth (MCF7 cells [1]; [3]): dramatically inhibited
ERα nuclear localization with NAM (ERα; MCF7 control and shNAMPT, estrogen starved 72 h, 10 nM E2 plus 10 mM NAM, 24 h): inhibited ERα nuclear localization
ERα expression and nuclear localization (ERα; MCF7 shCT or shNAMPT, 10 mM nicotinamide, 7 days, EMEM with 10% FBS): do not affect estrogen receptor alpha (ERα) expression and nuclear localization
NAD+ levels after NAM treatment (cellular NAD^+): induced significantly NAD^+ levels
restoration of tamoxifen sensitivity (MCF7 cells [2]; [4]): restore tamoxifen sensitivity
effect of NAM on anti-proliferative efficacy of 4-hydroxytamoxifen (MCF7 cells [2]; MCF7 shCtrl and shNAMPT, 10 mM NAM, 1 μM 4-hydroxytamoxifen, 14 days): enhanced the anti-proliferative efficacy of 4-hydroxytamoxifen
effect of NAM on anti-proliferative efficacy of 4-hydroxytamoxifen (T47D cells; T47D shCtrl and shNAMPT, 10 mM NAM, 0.1 μM 4-hydroxytamoxifen): enhanced the anti-proliferative efficacy of 4-hydroxytamoxifen
sensitization to tamoxifen-induced antiproliferative effects (MDA-MB-231 cells): sensitized MDA-MB-231 to tamoxifen-induced antiproliferative effects

NC(=O)c1ccc[n+]([C@@H]2O[C@H](CO)[C@@H](O)[C@H]2O)c1 [nicotinamide riboside]
activity in restoring Tamoxifen sensitivity compared with NAM (MCF7 cells [2]; ER+/NAMPT low (shNAMPT) MCF7 cells, 1 or 5 mM NR, 1 or 5 μM 4-hydroxytamoxifen, 7 days): more potent activity than NAM
restoration of tamoxifen sensitivity (MCF7 cells [2]; [4]): restore tamoxifen sensitivity
